Assay results as given in patent US11058671B2, “Formulations and methods of manufacturing formulations for use in colonic evacuation” (RedHill Biopharma Ltd., priority 2012, dated 2021).

Test: Excipient compatibility study (colour change / ascorbic acid degradation)
Type: physicochemical
Details: presence of metallic cations (such as Cu2+, Fe3+, Zn2+)
Procedure: Excipient compatibility studies with all excipients against Na picosulfate and ascorbic acid were carried out. Antioxidants like Na meta-bisulphite, Na bisulphite and Na sulphite were added. Further, the study was carried out to determine if citric acid helped stabilize the colour change of ascorbic acid. Samples were assessed at 1 week, 2 weeks, 4 weeks and at 8 weeks.
Tertiary mixtures with components (250 mg MgO+500 mg AA+25 mg Sulphites (or 100 mg Acids) • MgO+ascorbic acid+Na meta-sulphite • MgO+ascorbic acid+Na bisulphite • MgO+ascorbic acid+Na sulphite • MgO+ascorbic acid+citric acid • MgO+ascorbic acid+tartaric acid • MgO+sodium ascorbate+Na meta-sulphite • MgO+sodium ascorbate+Na bisulphite • MgO+sodium ascorbate+Na sulphite • MgO+sodium ascorbate+citric acid • MgO+sodium ascorbate+tartaric acid Quaternary mixtures with components ((250 m, MgO+500 mg AA+20 mg NaP+25 Sulphites (or 100 mg acids) • MgO+Na picosulfate+ascorbic acid+Na meta-sulphite • MgO+Na picosulfate+ascorbic acid+Na bisulphite • MgO+Na picosulfate+ascorbic acid+Na sulphite • MgO+Na picosulfate+ascorbic acid+citric acid • MgO+Na Picosulfate+ascorbic acid+tartaric acid
Binary, tertiary and quaternary mixtures of the API and excipients at various ratios were prepared as follows: • 1. […] Add approximately half of the excipient quantity into a container. • 3. […]

With `O=C1O[C@H]([C@@H](O)CO)C(O)=C1O` [ascorbic acid] the “Degradation of ascorbic acid with excipients” value was “degrades in the presence of metallic cations”.
